Tested on: α-fodrin gene
Assay: α-fodrin gene expression in lymphocyte-derived immortalized cells before and after drug administration (real-time PCR)
Assay type: cell-based, human
Details: EB virus-immortalized cells derived from lymphocytes of the migraine group and the healthy group; before vs after administration of the drug to cells in culture; FIG. 2
From the text: Peripheral bloods were harvested from 5 patients having an aura of migraine, as diagnosed according to the International Classification of Headache Disorders 2nd Edition (ICHD-II) of the International Headache Society as well as from 5 healthy subjects constituting a control group who are matched with the 5 patients in terms of age and sex. From the migraine subjects, their bloods were drawn during an interval between migraine attacks. Their lymphocytes were isolated by centrifugation from the peripheral bloods collected from each group.
The lymphocytes of each group were infected by adding 1 mL of EB virus supernatant (the culture supernatant of B958 cells, EB virus-producing cells) to the lymphocytes at 2×10^6 cells and 2 μL of 100-fold diluted cyclosporin solution (original solution of cyclosporin (Sandimmun 1A (5 ml) 250 mg) to the lymphocytes at 2×10^6 cells, followed by incubation in RPMI(+) medium for about four days. Then, cell lines established by continuous passaging in the same medium were used as the lymphocyte-derived immortalized cells in the present invention. These immortalized cells were used for the following experiments under the same conditions of culture condition, number of passages, etc.
Thus, the gene expression levels of α-fodrin and HPCAL1 were examined by performing quantitative real-time PCR using immortalized lymphocytes obtained from the migraine and healthy subjects as samples. […] The expression level of each gene was relatively quantified by the comparative Ct (threshold cycle) method based on the amplification curve obtained from the PCR.
Immortalized cells derived from lymphocytes of the migraine group and the healthy group were subjected to mRNA expression analysis in the same manner as described above. […] By using part of the immortalized cells before and after the administration of each drug, the expression level of α-fodrin gene was analyzed.

SMILES	expression level of α-fodrin gene
NC(N)=Nc1nc(CSCCC(N)=NS(N)(=O)=O)cs1 [Gaster, famotidine]	increased the expression level of α-fodrin
CC(=O)Oc1ccccc1C(=O)O [aspirin]	reduced the expression level of α-fodrin
CNS(=O)(=O)Cc1ccc2[nH]cc(CCN(C)C)c2c1 [sumatriptan]	reduced the expression level of α-fodrin
